# Results published in patent US20020088018A1, “Transgenic mice containing MAS orphan receptor gene disruptions” (priority 2000, published 2002).
# System: mice (wild-type and MAS receptor gene homozygous mutant)
# Assay: Metrazol administration test (metrazol dose testing, seizure susceptibility)
# Format: in vivo, mouse
# Details: for Dose (mg/kg body weight), Observable: T/C / Dose (mg/kg body weight), Observable: Death / Dose (mg/kg body weight), Observable: Twitch / Dose (mg/kg body weight), Observable: Extension: F2N1 mice; for Dose (mg/kg body weight), Observable: T/C: metrazol dose to T/C seizure; for Dose (mg/kg body weight), Observable: Death: metrazol dose to death; for Dose (mg/kg body weight), Observable: Twitch: metrazol dose to first twitch; for Dose (mg/kg body weight), Observable: Extension: metrazol dose to tonic extension
# Description: A metrazol administration test can be used to screen animals for varying susceptibilities to seizures or similar events. For example, a 5 mg/ml solution of metrazol can be infused through the tail vein of a mouse at a rate of, e.g., approximately 0.375 ml/min. The infusion will cause all mice to experience seizures, followed by death. Those mice that enter the seizure stage the soonest are believed to be more prone to seizures.
# The transgenic mice were analyzed for phenotypic changes. […] These characteristics response parameters are: (1) first twitch; (2) tonic/clonic seizure; (3) tonic extension, […]; and (4) death.
# [1] = genotype −/− (MAS homozygous mutant)
structure (smiles),measurement,setting,value
C1CCc2nnnn2CC1 [metrazol],"Dose (mg/kg body weight), Observable: T/C",genotype +/+ (wild-type),37.94 mg/kg body weight
same,"Dose (mg/kg body weight), Observable: Death",genotype +/+ (wild-type),96.27 mg/kg body weight
same,"Dose (mg/kg body weight), Observable: Twitch",genotype +/+ (wild-type),25.59 mg/kg body weight
same,"Dose (mg/kg body weight), Observable: Extension",genotype +/+ (wild-type),75.60 mg/kg body weight
same,"Dose (mg/kg body weight), Observable: T/C",[1],45.28 mg/kg body weight
same,"Dose (mg/kg body weight), Observable: Death",[1],138.55 mg/kg body weight
same,"Dose (mg/kg body weight), Observable: Twitch",[1],33.95 mg/kg body weight
same,"Dose (mg/kg body weight), Observable: Extension",[1],115.89 mg/kg body weight
same,response threshold to metrazol,homozygous mutants as compared to wild-type animals,increased
